Laboratory results as given in patent US10906873B2, “Substituted cyclic amides as herbicides” (FMC Corporation, priority 2015, dated 2021).

Key:
Format in all cases: in vivo
[1] = test system: barnyardgrass (Echinochloa crus-galli); experiment: Test A preemergence, barnyardgrass; conditions: 0 to 100 scale
Summary of the method: (§1)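 Seeds sown in loam–sand blend received a directed soil spray preemergence; postemergence plants (2–10 cm, one- to two-leaf stage) were sprayed with test chemicals in non-phytotoxic solvent with surfactant. After about 10 d in greenhouse, injury was scored visually versus untreated controls, 0 (no effect) to 100 (complete control).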

kochia (Kochia scoparia) [2] = experiment: Test A preemergence, kochia; conditions: 0 to 100 scale
Summary of the method: as §1

[3] = test system: ragweed (common ragweed, Ambrosia elatior); experiment: Test A preemergence, ragweed; conditions: 0 to 100 scale
Summary of the method: as §1

[4] = test system: ryegrass, It. (Italian ryegrass, Lolium multiflorum); experiment: Test A preemergence, ryegrass, It.; conditions: 0 to 100 scale
Summary of the method: as §1

[5] = test system: foxtail, giant (giant foxtail, Setaria faberii); experiment: Test A preemergence, foxtail, giant; conditions: 0 to 100 scale
Summary of the method: as §1

[6] = test system: pigweed (Amaranthus retroflexus); experiment: Test A preemergence, pigweed; conditions: 0 to 100 scale
Summary of the method: as §1

[7] = test system: barnyardgrass (Echinochloa crus-galli); experiment: Test A postemergence, barnyardgrass; conditions: 0 to 100 scale
Summary of the method: as §1

kochia (Kochia scoparia) [8] = experiment: Test A postemergence, kochia; conditions: 0 to 100 scale
Summary of the method: as §1

[9] = test system: ragweed (common ragweed, Ambrosia elatior); experiment: Test A postemergence, ragweed; conditions: 0 to 100 scale
Summary of the method: as §1

[10] = test system: ryegrass, It. (Italian ryegrass, Lolium multiflorum); experiment: Test A postemergence, ryegrass, It.; conditions: 0 to 100 scale
Summary of the method: as §1

[11] = test system: foxtail, giant (giant foxtail, Setaria faberii); experiment: Test A postemergence, foxtail, giant; conditions: 0 to 100 scale
Summary of the method: as §1

[12] = test system: wheat (Triticum aestivum); experiment: Test A postemergence, wheat; conditions: 0 to 100 scale
Summary of the method: as §1

corn (Zea mays) = experiment: Test A postemergence, corn; conditions: 0 to 100 scale
Summary of the method: as §1

[13] = test system: pigweed (Amaranthus retroflexus); experiment: Test A postemergence, pigweed; conditions: 0 to 100 scale
Summary of the method: as §1

[14] = test system: blackgrass (Alopecurus myosuroides); experiment: Test A postemergence, blackgrass; conditions: 0 to 100 scale
Summary of the method: as §1

[15] = test system: galium (catchweed bedstraw, Galium aparine); experiment: Test A postemergence, galium; conditions: 0 to 100 scale
Summary of the method: as §1

[16] = test system: barnyardgrass (Echinochloa crus-galli); experiment: Test B flooded paddy test, barnyardgrass; conditions: Flood, 250 g ai/ha; scale of 0 to 100 where 0 is no effect and 100 is complete control; 13 to 15 d
Summary of the method: (§2)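 Plants at the 2-leaf stage were flooded to 3 cm above soil, and test compounds were applied directly into the paddy water, which was held at that depth throughout. After 13 to 15 d in a greenhouse, injury was rated visually against untreated controls on a 0–100 scale (0 no effect, 100 complete control).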

[17] = test system: ducksalad (Heteranthera limosa); experiment: Test B flooded paddy test, ducksalad; conditions: Flood, 250 g ai/ha; scale of 0 to 100 where 0 is no effect and 100 is complete control; 13 to 15 d
Summary of the method: as §2

rice (Oryza sativa) = experiment: Test B flooded paddy test, rice; conditions: Flood, 250 g ai/ha; scale of 0 to 100 where 0 is no effect and 100 is complete control; 13 to 15 d
Summary of the method: as §2

[18] = test system: sedge, umbrella (small-flower umbrella sedge, Cyperus difformis); experiment: Test B flooded paddy test, sedge, umbrella; conditions: Flood, 250 g ai/ha; scale of 0 to 100 where 0 is no effect and 100 is complete control; 13 to 15 d
Summary of the method: as §2

Row | SMILES | Plant response rating, Barnyardgrass ([1]; 125 g ai/ha) | Plant response rating, Barnyardgrass ([1]; 500 g ai/ha) | Plant response rating, Kochia (kochia (Kochia scoparia) [2]; 125 g ai/ha) | Plant response rating, Kochia (kochia (Kochia scoparia) [2]; 500 g ai/ha) | Plant response rating, Ragweed ([3]; 125 g ai/ha) | Plant response rating, Ragweed ([3]; 500 g ai/ha) | Plant response rating, Ryegrass, It. ([4]; 125 g ai/ha) | Plant response rating, Ryegrass, It. ([4]; 500 g ai/ha) | Plant response rating, Foxtail, Giant ([5]; 125 g ai/ha) | Plant response rating, Foxtail, Giant ([5]; 500 g ai/ha) | Plant response rating, Pigweed ([6]; 125 g ai/ha) | Plant response rating, Pigweed ([6]; 500 g ai/ha) | Plant response rating, Barnyardgrass ([7]; 125 g ai/ha) | Plant response rating, Barnyardgrass ([7]; 500 g ai/ha) | Plant response rating, Kochia (kochia (Kochia scoparia) [8]; 125 g ai/ha) | Plant response rating, Kochia (kochia (Kochia scoparia) [8]; 500 g ai/ha) | Plant response rating, Ragweed ([9]; 125 g ai/ha) | Plant response rating, Ragweed ([9]; 500 g ai/ha) | Plant response rating, Ryegrass, It. ([10]; 125 g ai/ha) | Plant response rating, Ryegrass, It. ([10]; 500 g ai/ha) | further results
1 | O=C1NCC(C#Cc2cccc(Cl)c2)C1C(=O)Nc1ccc(F)c(F)c1F (stereo not drawn) [Compound 26] | 0 | 70 | 0 | 0 | 0 | 0 | 0 | 0 | 0 | 70 | 0 | 40 | 0 | 60 | 0 | 0 | 0 | 0 | 0 | 0 | Plant response rating, Foxtail, Giant ([11]; 125 g ai/ha): 0; Plant response rating, Foxtail, Giant ([11]; 500 g ai/ha): 40; Plant response rating, Wheat ([12]; 125 g ai/ha): 0; Plant response rating, Wheat ([12]; 500 g ai/ha): 0; Plant response rating, Corn (corn (Zea mays); 125 g ai/ha): 0; Plant response rating, Corn (corn (Zea mays); 500 g ai/ha): 0; Plant response rating, Pigweed ([13]; 125 g ai/ha): 0; Plant response rating, Pigweed ([13]; 500 g ai/ha): 0; Plant response rating, Blackgrass ([14]; 125 g ai/ha): 0; Plant response rating, Blackgrass ([14]; 500 g ai/ha): 0; Plant response rating, Galium ([15]; 125 g ai/ha): 0; Plant response rating, Galium ([15]; 500 g ai/ha): 0; Plant response rating, Barnyardgrass [16]: 0; Plant response rating, Ducksalad [17]: 75; Plant response rating, Rice (rice (Oryza sativa)): 0; Plant response rating, Sedge, Umbrella [18]: 0
2 | O=C1NCC(/C=C/c2ccccc2F)C1C(=O)Nc1cccc(F)c1F (stereo not drawn) [Compound 28] | 50 | 90 | 0 | 0 | 0 | 0 | 0 | 0 | 50 | 90 | 0 | 0 | 50 | 70 | 0 | 0 | 0 | 0 | 0 | 0 | Plant response rating, Foxtail, Giant ([11]; 125 g ai/ha): 20; Plant response rating, Foxtail, Giant ([11]; 500 g ai/ha): 50; Plant response rating, Wheat ([12]; 125 g ai/ha): 0; Plant response rating, Wheat ([12]; 500 g ai/ha): 0; Plant response rating, Corn (corn (Zea mays); 125 g ai/ha): 0; Plant response rating, Corn (corn (Zea mays); 500 g ai/ha): 0; Plant response rating, Pigweed ([13]; 125 g ai/ha): 0; Plant response rating, Pigweed ([13]; 500 g ai/ha): 0; Plant response rating, Blackgrass ([14]; 125 g ai/ha): 0; Plant response rating, Blackgrass ([14]; 500 g ai/ha): 0; Plant response rating, Galium ([15]; 125 g ai/ha): 0; Plant response rating, Galium ([15]; 500 g ai/ha): 20; Plant response rating, Barnyardgrass [16]: 90; Plant response rating, Ducksalad [17]: 90; Plant response rating, Rice (rice (Oryza sativa)): 10; Plant response rating, Sedge, Umbrella [18]: 50
3 | O=C1NCC(C#Cc2cccc(Cl)c2)C1C(=O)Nc1ccccc1F (stereo not drawn) [Compound 29] | 30 | 70 | 0 | 0 | 0 | 0 | 0 | 0 | 0 | 60 | 0 | 0 | 0 | 60 | 0 | 0 | 0 | 0 | 0 | 0 | Plant response rating, Foxtail, Giant ([11]; 125 g ai/ha): 0; Plant response rating, Foxtail, Giant ([11]; 500 g ai/ha): 60; Plant response rating, Wheat ([12]; 125 g ai/ha): 0; Plant response rating, Wheat ([12]; 500 g ai/ha): 0; Plant response rating, Corn (corn (Zea mays); 125 g ai/ha): 0; Plant response rating, Corn (corn (Zea mays); 500 g ai/ha): 0; Plant response rating, Pigweed ([13]; 125 g ai/ha): 0; Plant response rating, Pigweed ([13]; 500 g ai/ha): 0; Plant response rating, Blackgrass ([14]; 125 g ai/ha): 0; Plant response rating, Blackgrass ([14]; 500 g ai/ha): 0; Plant response rating, Galium ([15]; 125 g ai/ha): 0; Plant response rating, Galium ([15]; 500 g ai/ha): 0; Plant response rating, Barnyardgrass [16]: 0; Plant response rating, Ducksalad [17]: 75; Plant response rating, Rice (rice (Oryza sativa)): 0; Plant response rating, Sedge, Umbrella [18]: 0
